In patent publication US7629156B2, “Ethanol production in fermentation of mixed sugars containing xylose” (E.I. du Pont de Nemours and Company, priority 2006, dated 2009):

Tests used:
Format in all cases: cell-based, Zymomonas mobilis
[1] = system: ZW658 strain; assay: Flask fermentation of ZW658 on glucose and xylose with various polyols; settings: 10 mM polyol; for ethanol production / xylose utilization: mixed sugars; for OD600: after 32 hours, total sugar about 160 g/L, 33° C.
Method: (§1) Approximately 1 ml of well mixed sample was obtained from flask or fermentor. First the sample absorbance was measured directly with a spectrophotometer (Amersham Biosciences Ultrospec 3300pro, GE Healthcare, Piscataway, N.J., USA). If the reading was lower than 0.6 unit, no dilution was needed. If the reading was higher than 0.6 unit, the sample was diluted with culture medium until the actual reading was in the range of 0.1 to 0.6 unit. The original OD was calculated from the dilution ratio and the actual reading.
(§2) The analysis of sugars, acetate, ethanol, and other by-products was done with an Agilent 1100 series HPLC and Agilent ChemStation software for LC 3D. The column was BioRad Aminex HPX-87H(HPLC Organic Analysis Column 125-0140) with BioRad Micro-Guard Cartridge Cation-H (125-0129). The operating conditions were:
(§3) Glycerol stock of seed frozen at −80° C. was thawed, then inoculated into sterile culture tubes with mixture of 60 g/L glucose, 20 g/L xylose, 10 g/L yeast extract (YE), 10 g/L KH2PO4, 2 g/L (NH4)2SO4, and 1 g/L MgSO4. Initial pH was adjusted to 5.5 with 4 N KOH. This revival culture was grown statically overnight at 37° C. It was transferred into shake flasks with 75 g/L glucose, 25 g/L xylose, 10 g/L yeast extract (YE), 10 g/L KH2PO4, 2 g/L (NH4)2SO4, and 1 g/L MgSO4. Initial pH was adjusted to 5.5 with 4 N KOH. Growth was monitored by measuring OD600. When the OD reached approximately 5, a certain volume of the seed was withdrawn into a sterile syringe for inoculation.
In five sterilized 125 ml Erlenmeyer culture flasks (Cat. No. 30180-036, VWR International, USA), 10 ml of ZW658 strain seed culture at OD600 of approximately 5 was inoculated into each flask with 100 ml of aqueous solution containing 100 g/L glucose, 80 g/L xylose, 10 g/L yeast extract (YE), 2 g/L KH2PO4, 1 g/L MgSO4.7H2O, and 4 g/L KHCO3, and 10 mM of one of the following polyols: erythritol, sorbitol, mannitol, maltitol, or lactitol. After inoculation, the total sugar concentration was about 160 g/L due to dilution by the seed culture. Initial pH was adjusted to 5.5 with 4 N H3PO4 solution. Mixing speed was set at 150 rpm. Fermentation was conducted at 33° C. and pH was not controlled. Samples were taken periodically. Samples were filtered through 0.22 micron filters, and the filtrates were analyzed by HPLC as described in General Methods for compounds including glucose, xylose, ethanol, xylitol, and acetic acid. Samples were diluted with medium (as described in General Methods) and the OD600 was measured to monitor cell growth. […] Cultures with sorbitol or mannitol grew faster and better. After 32 hours, the OD600 were 13.94 and 13.92, respectively, for cultures supplemented with sorbitol or mannitol; meanwhile, the OD600 were 9.48, 9.02, and 9.24, respectively, for cultures supplemented with erythritol, maltitol, or lactitol. […] The presence of sorbitol or mannitol allowed more xylose utilization, without production of xylitol.

[2] = system: ZW658 strain; assay: Flask fermentation of ZW658 on glucose and xylose with acetate and various polyols; settings: 10 mM polyol, 3 g/L acetate; for OD600: after 32 hours, total sugar about 160 g/L
Method: as §1, §2, §3
In five sterilized 125 ml Erlenmeyer culture flasks (Cat. No. 30180-036, VWR International, USA), 10 ml of ZW658 strain seed culture at OD600 of approximately 5 was inoculated into each flask with 100 ml of aqueous solution containing 100 g/L glucose, 80 g/L xylose, 3 g/L acetate, 10 g/L yeast extract (YE), 2 g/L KH2PO4, 1 g/L MgSO4.7H2O, and 4 g/L KHCO3, and 10 mM of the following polyols: erythritol, sorbitol, mannitol, maltitol, or lactitol; or 5 mM sorbitol plus 5 mM maltitol, or 5 mM sorbitol plus 5 mM lactitol. After inoculation, the total sugar concentration was about 160 g/L due to dilution by the seed culture. Initial pH was adjusted to 5.5 with 4 N H3PO4 solution. Mixing speed was set at 150 rpm. Fermentation was conducted at 33° C. and pH was not controlled. Samples were taken periodically. Samples were filtered through 0.22 micron filters, and the filtrates were analyzed by HPLC as described in General Methods for compounds including glucose, xylose, ethanol, and acetate. Samples were diluted with medium (as described in General Methods) and the OD600 was measured to monitor cell growth.

[3] = system: ZW658 strain; assay: Tube fermentation of ZW658 on glucose and xylose with various sugar alcohols (Example 13); settings: for ethanol production / xylose utilization: sugar alcohol in the medium vs control
Method: as §1, §2
In eight sterilized 50 ml screw-cap centrifuge tubes (Cat. No. 21008-178, VWR International, USA), 200 μl of ZW658 strain glycerol stock at OD600 of approximately 10 was inoculated into each flask with 25 ml of aqueous solution containing 92 g/L glucose, 82 g/L xylose, 10 g/L yeast extract (YE), 2 g/L KH2PO4, 1 g/L MgSO4.7H2O, and either 10 mM of sorbitol, arabitol, adonitol (also called ribitol), or galactitol; or 50 mM of arabitol, adonitol, or galactitol. The control had no sugar alcohol added. Initial pH was adjusted to 5.5 with 4 N H3PO4 solution. Fermentation was conducted at 33° C. and pH was not controlled. Samples were taken periodically between 0 and 40 hr. Samples were filtered through 0.22 micron filters, and the filtrates were analyzed by HPLC as described in General Methods for glucose, xylose, xylitol, and ethanol. Samples were diluted with medium (as described in General Methods) and the OD600 was measured to monitor cell growth. Results of growth and glucose utilization are given in FIGS. 20A and 20B, respectively. Results of xylose utilization and ethanol production are given in FIGS. 21A and 21B, respectively. Cultures with sorbitol or galactitol grew much faster and better than the control. Cultures with adonitol also grew better. After 40 hours, the OD600 were 7 to 8, for cultures supplemented with sorbitol or galactitol; the OD600 were about 5, for cultures supplemented with adonitol; while the OD600 were less than 1 for other cultures. […] The presence of sorbitol, galactitol, or adonitol allowed more xylose utilization, without production of xylitol.

[4] = system: ZW658 strain; assay: 1-liter fermentor, ZW658 on high concentration glucose and xylose with sorbitol or glutamate
Method: as §1, §2, §3
In a sterilized 1-liter fermentor (BIOSTAT® B-DCU system, Sartorius BBI System Inc., Bethlehem, Pa., USA), 50 ml of ZW658 strain seed culture at Optical Density of approximately 5 (measured at 600 nm) was inoculated into 450 ml of aqueous solution containing sugars and medium. The final mixed broth contained 100 g/L glucose, 85.1 g/L xylose, 10 g/L yeast extract (YE), 2 g/L KH2PO4, and 10 mM sorbitol. pH was adjusted to 5.5 with 4 N KOH solution. Mixing speed was set at 150 rpm. Fermentation was conducted at 33° C. and pH 5.5. Samples were taken periodically. Samples were filtered through 0.22 micron filters, and the filtrates were analyzed by HPLC as described in General Methods for compounds including glucose, xylose, ethanol, and acetate. Samples were also diluted with medium (as described in General Methods) and the OD600 was measured to monitor cell growth. […] The by-product xylitol concentration was 0.67 g/L at 29 hr, and increased to 0.95 g/L at 64 hr.
In a sterilized 1-liter fermentor (BIOSTAT® B-DCU system, Sartorius BBI System Inc., Bethlehem, Pa., USA), 50 ml of ZW658 strain seed culture at OD600 of approximately 5 was inoculated into 450 ml of aqueous solution containing sugars and medium. The final mixed broth contained 98.0 g/L glucose, 81.2 g/L xylose, 10 g/L yeast extract (YE), 2 g/L KH2PO4, and 10 mM potassium glutamate. pH was adjusted to 5.5 with 4 N KOH solution. Mixing speed was set at 150 rpm. Fermentation was conducted at 33° C. and pH 5.5. Samples were taken periodically. Samples were filtered through 0.22 micron filters, and the filtrates were analyzed by HPLC as described in General Methods for compounds including glucose, xylose, xylitol, ethanol, and acetic acid. Samples were also diluted with medium (as described in General Methods) and the OD600 was measured to monitor cell growth. […] However, xylose was not well-utilized, cell growth and ethanol production were reduced as compared to that in the presence of sorbitol (Example 4), and xylitol production increased.

[5] = system: ZW658 strain; assay: Tube fermentation of ZW658 on glucose and xylose with various sugar alcohols (Example 14); settings: for ethanol production / xylose utilization: 10 mM sugar alcohol vs control; for OD600: after 48 hours, 10 mM sugar alcohol, 92 g/L glucose, 82 g/L xylose
Method: as §1, §2
In six sterilized 50 ml screw-cap centrifuge tubes (Cat. No. 21008-178, VWR International, USA), 200 μl of ZW658 strain glycerol stock at OD600 of approximately 10 was inoculated into each flask with 25 ml of aqueous solution containing 92 g/L glucose, 82 g/L xylose, 10 g/L yeast extract (YE), 2 g/L KH2PO4, 1 g/L MgSO4.7H2O, and 10 mM of D-sorbitol, L-sorbitol, D-threitol, myo-inositol, or xylitol. The control had no addition of sugar alcohol. Initial pH was adjusted to 5.5 with 4 N H3PO4 solution. Fermentation was conducted at 33° C. and pH was not controlled. Samples were taken periodically between 0 and 48 hr. Samples were filtered through 0.22 micron filters, and the filtrates were analyzed by HPLC as described in General Methods for glucose, xylose, xylitol, and ethanol. Samples were diluted with medium (as described in General Methods) and the OD600 was measured to monitor cell growth. Results of growth and glucose utilization are given in FIGS. 22A and 22B, respectively. Results of xylose utilization and ethanol production are given in FIGS. 23A and 23B, respectively. Cultures with D-sorbitol or L-sorbitol grew faster and better than the control. After 48 hours, the OD600 were 6.2 and 5.2, respectively, for cultures supplemented with D-sorbitol or L-sorbitol; while the OD600 were less than 1 for other cultures. […] The presence of D-sorbitol or L-sorbitol allowed more xylose utilization, without production of xylitol.

[6] = after 63.75 hours, 10 mM potassium glutamate
[7] = in the presence of glutamate, mixed sugars

## OC[C@@H](O)[C@@H](O[C@H]1O[C@H](CO)[C@@H](O)[C@H](O)[C@H]1O)[C@H](O)[C@@H](O)CO [maltitol]
[1]
  ethanol production: do not increase ethanol production
  xylose utilization: nor do they increase xylose utilization
  OD600: 9.02
[2]
  OD600: 5.20

## OC[C@@H](O)[C@@H](O)[C@@H](O)CO [adonitol]
[3]; after 40 hours, 10 mM sorbitol, 10 mM or 50 mM other sugar alcohols, 92 g/L glucose, 82 g/L xylose
  OD600: about 5
[3]
  ethanol production: ethanol production was also better
  xylose utilization: More xylose was utilized

## OC[C@@H](O)[C@@H](O)[C@H](O)[C@H](O)CO [mannitol]
[1]
  ethanol production: ethanol production was also better
  xylose utilization: More xylose was utilized
  OD600: 13.92
[2]
  ethanol production: ethanol production was also better
  xylose utilization: More xylose was utilized
  OD600: 7.40

## N[C@@H](CCC(=O)[O-])C(=O)[O-].[K+].[K+] [glutamate, potassium glutamate, reference compound]
[4]; 10 mM potassium glutamate
  effect on lag period: reduced the lag period
  time at which glucose concentration reached 0: 24 h
[4]; [6]
  OD600 cells grew to: 6.9
  by-product xylitol concentration: 4.38 g/L
  ethanol concentration: 72.3 g/L
[4]; after 63.75 hours, 98.0 g/L glucose, 81.2 g/L xylose, 10 mM potassium glutamate
  xylose concentration: 21.2 g/L
[4]; after 63.75 hours, 98.0 g/L glucose, 81.2 g/L xylose, 10 mM potassium glutamate, 33° C., pH 5.5
  glucose concentration: 0 g/L
[4]; [7]
  effect on ethanol production: ethanol production is not improved
  effect on xylitol production: xylitol production is not reduced
  effect on xylose utilization: xylose utilization is not enhanced

## OC[C@@H](O)[C@H](O)[C@@H](O)[C@@H](O)CO [L-sorbitol]
[5]
  ethanol production: ethanol production was also better
  xylose utilization: More xylose was utilized
  OD600: 5.2

## OC[C@@H](O)[C@@H](O)CO [erythritol]
[1]
  ethanol production: do not increase ethanol production
  xylose utilization: nor do they increase xylose utilization
  OD600: 9.48
[2]
  OD600: 5.20

## OC[C@@H](O)[C@H](O)[C@H](O)[C@@H](O)CO [galactitol]
[3]
  ethanol production: ethanol production was also better
  xylose utilization: More xylose was utilized

## OC[C@@H](O)[C@@H](O[C@@H]1O[C@H](CO)[C@H](O)[C@H](O)[C@H]1O)[C@H](O)[C@@H](O)CO [lactitol]
[1]
  ethanol production: do not increase ethanol production
  xylose utilization: nor do they increase xylose utilization
  OD600: 9.24
[2]
  OD600: 5.30

## OC[C@@H](O)[C@@H](O)[C@H](O)[C@@H](O)CO [D-sorbitol]
[5]
  ethanol production: ethanol production was also better
  xylose utilization: More xylose was utilized
  OD600: 6.2
